Experimental data taken from US7994122B2, “Glucagon analogues” (Zealand Pharma A/S, priority 2007, dated 2011).
Where no end group is shown, it is not given here.

Tests used:
[1] = Body weight in diet induced obese (DIO) mice; type: in vivo, C57BI/6J male mice; conditions: HFD (DIO) mice
Method: Efficacious glucagon/GLP-1 receptor agonists are tested on 9-15 weeks old, 40 C57BI/6J male mice which have been kept on a High Fat Diet (HFD)—60% high-fat food (Cat. No. D12492: 20% protein, 20% carbohydrate, and 60% fat, 5.2 kcal/g; Research Diets, New Jersey, USA, for 4 weeks. The high-fat food contains soybean oil (25/773.85 g) and lard (245/773.85 g).
DIO-mice are treated with vehicle or co-agonists for 2-4 weeks by bolus administration (s.c.) twice daily. Body weight is monitored daily throughout the experiment. At the end of the experimental period animals are sacrificed, blood collected for analysis of glycated hemoglobin and a range of hormones and peptides involved in regulation of appetite, food intake, body weight, and energy balances. In addition, the epididymal/perigonadal fat pads and retroperitoneal fat (WAT) as well as the intrascapular Brown Adipose Tissue (BAT) are dissected out and weighed. […]
Following an acclimatization treatment with 100 μl vehicle (PBS) once a day for two weeks DIO-mice were treated with vehicle, control peptides or Compound 3 for 4 weeks by bolus administration (s.c.) twice daily. Body weight was monitored daily throughout the experiment. […]

hGLP-1-R = molecular target: T1, hGLP-1-R (Homo sapiens, UniProt P43220); assay: GLP-1 receptor efficacy assay (cAMP) in HEK293 cells expressing hGLP-1-R; type: cell-based
T1 construct: expressed in transfected cells
Excerpt: The DNA encoding the Glucagon-R or the GLP-1-R was amplified by PCR using primers encoding terminal restriction sites for subcloning. The 5′-end primers additionally encoded a near Kozak consensus sequence to ensure efficient translation. The PCR products encoding the Glucagon-R or the GLP-1-R were subcloned into a mammalian expression vector. The fidelity of the DNA encoding the Glucagon-R and the GLP-1-R was confirmed by DNA sequencing. As the mammalian expression vector additionally encodes for G418 resistance, transfected cells may be selected by applying selection pressure with G418. […] 48 hr after transfection cells were seeded for limited dilution cloning and selected with 1 mg/ml G418 in the culture medium. […] One Glucagon-R expressing clone and one GLP-1-R expressing clone were chosen for compound profiling.
HEK293 cells expressing the hGlucagon-R, or hGLP-1-R are seeded at 40,000 cells per well in 96-well microtiter plates coated with 0.01% poly-L-lysine and grown for 1 day in culture in […] growth medium. On the day of analysis, growth medium is removed and the cells washed once with 200 μl Tyrode buffer. Cells are incubated in 100 μl Tyrode buffer containing increasing concentrations of test peptides, 100 μM IBMX, and 6 mM glucose for up 15 min at 37° C. The reaction is stopped by addition of 25 μl 0.5 M HCl and incubated on ice for 60 min. The cAMP content is estimated using the FlashPlate® cAMP kit from Perkin-Elmer. EC50 and relative efficacy are estimated by computer aided curve fitting.

[2] = administered separately; Dakin et al. 2001; cited from earlier work

T1 sequence (P43220 24-463): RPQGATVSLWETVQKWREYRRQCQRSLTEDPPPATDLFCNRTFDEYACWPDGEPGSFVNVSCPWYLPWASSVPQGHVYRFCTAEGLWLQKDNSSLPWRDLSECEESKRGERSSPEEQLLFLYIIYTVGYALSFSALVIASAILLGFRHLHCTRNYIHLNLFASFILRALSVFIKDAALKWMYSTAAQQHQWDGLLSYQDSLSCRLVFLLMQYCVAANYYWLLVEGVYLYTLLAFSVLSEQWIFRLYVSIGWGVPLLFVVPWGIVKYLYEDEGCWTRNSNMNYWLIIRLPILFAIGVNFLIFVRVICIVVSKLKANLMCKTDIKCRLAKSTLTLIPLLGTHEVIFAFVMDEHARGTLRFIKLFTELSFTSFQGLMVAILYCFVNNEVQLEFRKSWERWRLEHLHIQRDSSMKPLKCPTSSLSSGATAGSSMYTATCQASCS

Row | ratio (GluR / GLP1R EC values) (hGLP-1-R; first test) | EC50[Glu]/EC50[GLP-1] ratio (hGLP-1-R; re-testing) | EC50 (hGLP-1-R; re-testing, cAMP, HEK293 hGLP-1-R) [nM] | Substance | body weight gain ([1]; s.c. bolus 500 nmol/kg twice daily, 28 days, p<0.05 vs vehicle HFD) | weight reducing effect over time ([1]; s.c. twice daily, 4 weeks (FIG. 2)) | effect on food intake [2]
1 | 1.27 | 2.13 | 0.23 | H-HSQGTFTSDYSKYLDRARADDFVAWLKST-NH2 [Compound 3] | able to reduce body weight gain comparable to oxyntomodulin treatment | sustained over time comparable to oxyntomodulin treatment and significantly different from exendin-4 treatment | –
2 | – | – | – | KRNRNNIA [IP-1, C-terminal octapeptide of oxyntomodulin] | – | – | fail to affect food intake
